Measurements published in US20230046081A1, “SYNERGISTIC ACTIVITY OF NOVEL COMPOUNDS AGAINST PLANKTONIC AND BIOFILM CELLS OF CLINICALLY RELEVANT PATHOGENS” (priority 2021, published 2023).
Where a name gives a salt, the structure may show the parent alone.

Tests used:
[1] = test system: bacterial and fungal biofilms (eight test organisms); assay: Rapid biofilm eradication, 48-h old biofilms, 2 hour exposure; assay type: cell-based
Procedure: This example comprises performing biofilm growth as described above. After biofilm formation, control pegs (n=6) were removed and analyzed to determine the starting biofilm cell numbers via the drop dilution method. The 48-h old biofilms on the pegs were exposed to different concentrations of test antimicrobials, dissolved in an appropriate growth medium, for 2 hours to evaluate their efficacy alone and in combination. […] Following treatment, pegs were washed twice with sterile PBS, and the biofilm cells were dislodged into recovery medium and enumerated as described above.

[2] = test system: Gram-positive, Gram-negative, and fungal biofilms; assay: MBEC Assay, 48 h old biofilms on pegs, 24 h antimicrobial exposure; assay type: cell-based; conditions: 24 hours of treatment
Procedure: The evaluation of the biofilm cultivation cell composition was evaluated using an MBEC Assay® biofilm inoculator, consisting of a polystyrene lid with 96 downward-protruding pegs and a corresponding base used to grow biofilms. A standardized inoculum was diluted in an appropriate biofilm growth medium to achieve a viable cell count of 1.5×10^6 CFU/mL of bacterial cells or 5×10^5 CFU/mL of fungal cells. Then, 150 μL of this inoculum was transferred into each appropriate well, and the peg lids were inserted into the microtiter plates. The plates were sealed with Parafilm and were incubated at optimum temperature for 48 h with slight rocking for bacteria and shaking at 200 rpm for fungal strains. After incubation, the peg lid was removed from the base and rinsed twice with sterile phosphate-buffered saline (PBS) for 2 min to remove loosely attached non-sessile cells. Before the antimicrobial challenge, the pegs in column 1 (n=8) were considered as the biofilm growth control; these pegs were removed from the lids, placed into 200 μL of recovery medium, and analyzed for starting biofilm cell numbers as described below. […] After the antimicrobial challenge, the pegs were rinsed twice with sterile PBS for 2 min and placed into a new 96-well plate containing 200 μL of recovery medium. The recovery plates were sealed with Parafilm, and biofilm cells were dislodged from the pegs by sonication for 30 min with a Branson 3510 bath sonicator. The biofilm cells in the recovery medium were serially diluted, and a drop dilution assay was performed to enumerate the viable cells.

[3] = dog, in vivo; cited from earlier work
[4] = test system: Klebsiella pneumoniae, E. coli, S. epidermidis, P. aeruginosa, and C. albicans; conditions: 40 mg/mL, locked for 21-25 h; cited from earlier work
[5] = test system: commonly encountered pathogens; conditions: cited from earlier work

SMILES	eradication of preformed biofilms, agent alone at its MBEC [1]	concentration alone able to eradicate all established biofilms [2]	cochlear or vestibular neurotoxicity [3]	biofilm colonization on catheter segments [4]	minimum ethanol required to provide a 3-log reduction [5]
[H]/N=C(\N/C(=N/[H])NCCCCCCNC(=N)NC(=N)Nc1ccc(Cl)cc1)Nc1ccc(Cl)cc1 [chlorhexidine HCl, 1,6-bis(4-chloro-phenylbiguanido)hexane, reference compound]	failed to eradicate	100 µg/mL			
[H]/N=C(\N/C(=N/[H])NCCCCCCNC(=N)NC(=N)Nc1ccc(Cl)cc1)Nc1ccc(Cl)cc1 [chlorhexidine, 1,6-bis(4-chloro-phenylbiguanido)hexane]			did not induce cochlear or vestibular neurotoxicity		
O=C(O)CN(CCN(CC(=O)O)CC(=O)O)CC(=O)O.[Na].[Na].[Na].[Na] [tetrasodium EDTA, tetrasodium ethylenediaminetetraacetic acid]	failed to eradicate	4%		reduced biofilm colonization	
CCO [ethanol, reference compound]	failed to eradicate	50%			≥ 60%
